In the supplement of paper PMC11451515:

Key:
Conditions in all cases: 48 h
NOMO1 [1] = experiment: cell viability relative to DMSO control; higher = less cytotoxic
How it was run: (§1)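 Library compounds in DMSO were pin-dosed into 1536-well plates (5 μl) holding NOMO1 or SEM (500 cells/well) or P12-Ichikawa (1000 cells/well) leukemia cells, across an 11-point threefold series of 47 μM to 0.79 nM. Each cell line had been adapted for at least four passages in each medium. CellTiter-Glo One luminescence was read after 48 h at 37°C. Viability is the per-plate percentage relative to DMSO wells, with cell-free wells as background.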

P12-Ichikawa [2] = experiment: as above
How it was run: as §1

SEM cells [3] = experiment: as above
How it was run: as §1

NOMO1 [4] = experiment: AUC of viability dose-response curve (% viability x log10 dose units); higher = less sensitive
How it was run: (§2)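 Leukemia cells adapted to each medium (500 or 1000 cells/well, 1536-well plates) were exposed to library compounds in DMSO for 48 h at 37°C at 11 threefold doses, 47 μM to 0.79 nM. Luminescence by CellTiter-Glo One was normalised per plate to DMSO and cell-free wells, then fitted with a four-parameter log-logistic curve on log10 dose. Curves above full viability were scaled and quality-control failures removed before area under the curve was integrated by trapezoidal rule.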

P12-Ichikawa [5] = experiment: as above
How it was run: as §2

SEM cells [6] = experiment: as above
How it was run: as §2

COC(=O)[C@@H]1CC2=CC(=O)CC[C@]2(C)[C@@]23O[C@@H]2C[C@@]2(C)[C@@H](CC[C@@]24CCC(=O)O4)[C@H]13
cell viability [%]
Conditions | NOMO1 [1] | P12-Ichikawa [2] | SEM cells [3]
HPLM + 10% dialyzed FBS, 0.000781 µM | 93.6 | 98.1 | 87.9
HPLM + 10% dialyzed FBS, 0.00234 µM | 115 | 113 | 88.3
HPLM + 10% dialyzed FBS, 0.00702 µM | 107 | 104 | 94.7
HPLM + 10% dialyzed FBS, 0.0211 µM | 121 | 106 | 100
HPLM + 10% dialyzed FBS, 0.0632 µM | 116 | 112 | 96.1
HPLM + 10% dialyzed FBS, 0.19 µM | 133 | 117 | 121
HPLM + 10% dialyzed FBS, 0.569 µM | 122 | 117 | 113
HPLM + 10% dialyzed FBS, 1.71 µM | 136 | 115 | 115
HPLM + 10% dialyzed FBS, 5.12 µM | 124 | 120 | 115
HPLM + 10% dialyzed FBS, 15.4 µM | 123 | 121 | 102
HPLM + 10% dialyzed FBS, 46.1 µM | 119 | 112 | 111
RPMI 5 mM glucose + 10% FBS, 0.000781 µM | 95.3 | 107 | 105
RPMI 5 mM glucose + 10% FBS, 0.00234 µM | 91.4 | 109 | 108
RPMI 5 mM glucose + 10% FBS, 0.00702 µM | 112 | 112 | 113
RPMI 5 mM glucose + 10% FBS, 0.0211 µM | 106 | 124 | 98.1
RPMI 5 mM glucose + 10% FBS, 0.0632 µM | 104 | 123 | 116
RPMI 5 mM glucose + 10% FBS, 0.19 µM | 110 | 122 | 115
RPMI 5 mM glucose + 10% FBS, 0.569 µM | 116 | 123 | 97.4
RPMI 5 mM glucose + 10% FBS, 1.71 µM | 105 | 127 | 114
RPMI 5 mM glucose + 10% FBS, 5.12 µM | 109 | 130 | 122
RPMI 5 mM glucose + 10% FBS, 15.4 µM | 102 | 135 | 106
RPMI 5 mM glucose + 10% FBS, 46.1 µM | 112 | 128 | 121
RPMI 5 mM glucose + 10% dialyzed FBS, 0.000781 µM | 105 | 100 | 87.5
RPMI 5 mM glucose + 10% dialyzed FBS, 0.00234 µM | 121 | 117 | 93
RPMI 5 mM glucose + 10% dialyzed FBS, 0.00702 µM | 113 | 115 | 112
RPMI 5 mM glucose + 10% dialyzed FBS, 0.0211 µM | 121 | 112 | 101
RPMI 5 mM glucose + 10% dialyzed FBS, 0.0632 µM | 110 | 112 | 113
RPMI 5 mM glucose + 10% dialyzed FBS, 0.19 µM | 108 | 115 | 107
RPMI 5 mM glucose + 10% dialyzed FBS, 0.569 µM | 123 | 118 | 119
RPMI 5 mM glucose + 10% dialyzed FBS, 1.71 µM | 141 | 113 | 116
RPMI 5 mM glucose + 10% dialyzed FBS, 5.12 µM | 125 | 117 | 122
RPMI 5 mM glucose + 10% dialyzed FBS, 15.4 µM | 116 | 119 | 130
RPMI 5 mM glucose + 10% dialyzed FBS, 46.1 µM | 120 | 126 | 125

AUC of viability dose-response curve
Conditions | NOMO1 [4] | P12-Ichikawa [5] | SEM cells [6]
HPLM + 10% dialyzed FBS | 456 | 458 | 444
RPMI 5 mM glucose + 10% FBS | 467 | 446 | 456
RPMI 5 mM glucose + 10% dialyzed FBS | 450 | 451 | 421

CC1(C)CCC(=C(\C1)C2=CC=C(Cl)C=C2)/CN3CCN(CC3)C4=CC(=C(C=C4)C(=O)N[S+]([O-])(=O)C5=CC=C(NCC6CCOCC6)C(=C5)[N+]([O-])=O)OC7=CN=C8[NH]C=CC8=C7
cell viability [%]
Conditions | NOMO1 [1] | P12-Ichikawa [2] | SEM cells [3]
HPLM + 10% dialyzed FBS, 0.000781 µM | 103 | 98.6 | 104
HPLM + 10% dialyzed FBS, 0.00234 µM | 110 | 108 | 95.1
HPLM + 10% dialyzed FBS, 0.00702 µM | 95.8 | 104 | 99.3
HPLM + 10% dialyzed FBS, 0.0211 µM | 91.9 | 102 | 62.7
HPLM + 10% dialyzed FBS, 0.0632 µM | 113 | 98 | 43.7
HPLM + 10% dialyzed FBS, 0.19 µM | 71.8 | 98.3 | 12.6
HPLM + 10% dialyzed FBS, 0.569 µM | 63.2 | 98.5 | 8.25
HPLM + 10% dialyzed FBS, 1.71 µM | 55.3 | 97.5 | 7.7
HPLM + 10% dialyzed FBS, 5.12 µM | 55.1 | 83.9 | 7.49
HPLM + 10% dialyzed FBS, 15.4 µM | 45.8 | 67 | 7.18
HPLM + 10% dialyzed FBS, 46.1 µM | 39 | 49 | 5.72
RPMI 5 mM glucose + 10% FBS, 0.000781 µM | 93.7 | 103 | 124
RPMI 5 mM glucose + 10% FBS, 0.00234 µM | 84.4 | 106 | 105
RPMI 5 mM glucose + 10% FBS, 0.00702 µM | 99.3 | 114 | 123
RPMI 5 mM glucose + 10% FBS, 0.0211 µM | 89.4 | 104 | 76.2
RPMI 5 mM glucose + 10% FBS, 0.0632 µM | 85.4 | 104 | 70
RPMI 5 mM glucose + 10% FBS, 0.19 µM | 76.2 | 100 | 20.3
RPMI 5 mM glucose + 10% FBS, 0.569 µM | 61.3 | 99.2 | 11.1
RPMI 5 mM glucose + 10% FBS, 1.71 µM | 62.7 | 89.6 | 7.11
RPMI 5 mM glucose + 10% FBS, 5.12 µM | 63.2 | 96.5 | 6.79
RPMI 5 mM glucose + 10% FBS, 15.4 µM | 43 | 81.5 | 5.86
RPMI 5 mM glucose + 10% FBS, 46.1 µM | 33.6 | 68.1 | 4.71
RPMI 5 mM glucose + 10% dialyzed FBS, 0.000781 µM | 97 | 100 | 102
RPMI 5 mM glucose + 10% dialyzed FBS, 0.00234 µM | 95 | 103 | 90.8
RPMI 5 mM glucose + 10% dialyzed FBS, 0.00702 µM | 96.2 | 101 | 88.3
RPMI 5 mM glucose + 10% dialyzed FBS, 0.0211 µM | 76.7 | 105 | 53.8
RPMI 5 mM glucose + 10% dialyzed FBS, 0.0632 µM | 66.4 | 96.3 | 38
RPMI 5 mM glucose + 10% dialyzed FBS, 0.19 µM | 57.7 | 103 | 16.5
RPMI 5 mM glucose + 10% dialyzed FBS, 0.569 µM | 49 | 99 | 8.07
RPMI 5 mM glucose + 10% dialyzed FBS, 1.71 µM | 38.2 | 90.8 | 6.59
RPMI 5 mM glucose + 10% dialyzed FBS, 5.12 µM | 42.9 | 96.1 | 6.67
RPMI 5 mM glucose + 10% dialyzed FBS, 15.4 µM | 28 | 78.1 | 5.3
RPMI 5 mM glucose + 10% dialyzed FBS, 46.1 µM | 23.9 | 65.7 | 4.75

AUC of viability dose-response curve
Conditions | NOMO1 [4] | P12-Ichikawa [5] | SEM cells [6]
HPLM + 10% dialyzed FBS | 355 | 436 | 186
RPMI 5 mM glucose + 10% FBS | 347 | 436 | 198
RPMI 5 mM glucose + 10% dialyzed FBS | 290 | 449 | 175

CN1CCC(=C2c3ccccc3CCc3sccc32)CC1
cell viability [%]
Conditions | NOMO1 [1] | P12-Ichikawa [2] | SEM cells [3]
HPLM + 10% dialyzed FBS, 0.000781 µM | 88.8 | 110 | 75.4
HPLM + 10% dialyzed FBS, 0.00234 µM | 107 | 108 | 85
HPLM + 10% dialyzed FBS, 0.00702 µM | 111 | 111 | 107
HPLM + 10% dialyzed FBS, 0.0211 µM | 101 | 106 | 94.1
HPLM + 10% dialyzed FBS, 0.0632 µM | 126 | 111 | 101
HPLM + 10% dialyzed FBS, 0.19 µM | 118 | 118 | 109
HPLM + 10% dialyzed FBS, 0.569 µM | 103 | 112 | 93.3
HPLM + 10% dialyzed FBS, 1.71 µM | 104 | 111 | 111
HPLM + 10% dialyzed FBS, 5.12 µM | 121 | 114 | 102
HPLM + 10% dialyzed FBS, 15.4 µM | 103 | 111 | 95.8
HPLM + 10% dialyzed FBS, 46.1 µM | 44.5 | 90.8 | 51.1
RPMI 5 mM glucose + 10% FBS, 0.000781 µM | 106 | 108 | 81.8
RPMI 5 mM glucose + 10% FBS, 0.00234 µM | 109 | 116 | 104
RPMI 5 mM glucose + 10% FBS, 0.00702 µM | 104 | 109 | 97.4
RPMI 5 mM glucose + 10% FBS, 0.0211 µM | 106 | 117 | 106
RPMI 5 mM glucose + 10% FBS, 0.0632 µM | 125 | 119 | 96.1
RPMI 5 mM glucose + 10% FBS, 0.19 µM | 105 | 124 | 113
RPMI 5 mM glucose + 10% FBS, 0.569 µM | 114 | 132 | 111
RPMI 5 mM glucose + 10% FBS, 1.71 µM | 107 | 110 | 120
RPMI 5 mM glucose + 10% FBS, 5.12 µM | 102 | 120 | 97.3
RPMI 5 mM glucose + 10% FBS, 15.4 µM | 108 | 116 | 117
RPMI 5 mM glucose + 10% FBS, 46.1 µM | 109 | 89.7 | 82.1
RPMI 5 mM glucose + 10% dialyzed FBS, 0.000781 µM | 100 | 101 | 82.5
RPMI 5 mM glucose + 10% dialyzed FBS, 0.00234 µM | 108 | 107 | 110
RPMI 5 mM glucose + 10% dialyzed FBS, 0.00702 µM | 113 | 113 | 114
RPMI 5 mM glucose + 10% dialyzed FBS, 0.0211 µM | 112 | 104 | 99.5
RPMI 5 mM glucose + 10% dialyzed FBS, 0.0632 µM | 112 | 109 | 104
RPMI 5 mM glucose + 10% dialyzed FBS, 0.19 µM | 110 | 108 | 118
RPMI 5 mM glucose + 10% dialyzed FBS, 0.569 µM | 116 | 115 | 122
RPMI 5 mM glucose + 10% dialyzed FBS, 1.71 µM | 108 | 114 | 111
RPMI 5 mM glucose + 10% dialyzed FBS, 5.12 µM | 106 | 115 | 124
RPMI 5 mM glucose + 10% dialyzed FBS, 15.4 µM | 106 | 107 | 108
RPMI 5 mM glucose + 10% dialyzed FBS, 46.1 µM | 65.7 | 82.4 | 68.3

AUC of viability dose-response curve
Conditions | NOMO1 [4] | P12-Ichikawa [5] | SEM cells [6]
HPLM + 10% dialyzed FBS | 460 | 472 | 453
RPMI 5 mM glucose + 10% FBS | 477 | 471 | 459
RPMI 5 mM glucose + 10% dialyzed FBS | 466 | 465 | 464
